Experimental data published in ChEMBL document CHEMBL1201862, “PubChem BioAssay data set” (2004).
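Tested at 5 concentrations; 48 h exposure; 96-well plates; endpoints linearly interpolated, else capped at highest concentration. GI50 = concentration required for 50% inhibition of growth.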 Activity calls are given as the source filed them. Rule as the data show it: active = GI50 up to about 1.1 µM and inactive = higher.

Tests used:
Assay in all cases: DTP human tumour cell line panel, 48 h
PC-3 = system: PC-3
NCI-H226 = system: NCI-H226
Malme-3M = system: Malme-3M
UO-31 = system: UO-31
HCT-116 = system: HCT-116
NCI-H460 = system: NCI-H460
EKVX = system: EKVX
MDA-MB-231 = system: MDA-MB-231
A498 = system: A498
SW-620 = system: SW-620
SK-MEL-2 = system: SK-MEL-2
SN12C = system: SN12C
ACHN = system: ACHN
OVCAR-4 = system: OVCAR-4
SNB-19 = system: SNB-19
HL-60 = system: HL-60
OVCAR-5 = system: OVCAR-5
LOX IMVI = system: LOX IMVI
SK-OV-3 = system: SK-OV-3
RPMI-8226 = system: RPMI-8226

| SMILES | GI50 (PC-3) | GI50 (NCI-H226) | GI50 (Malme-3M) | GI50 (UO-31) | GI50 (HCT-116) | GI50 (NCI-H460) | GI50 (EKVX) | GI50 (MDA-MB-231) | GI50 (A498) | GI50 (SW-620) | GI50 (SK-MEL-2) | GI50 (SN12C) | GI50 (ACHN) | GI50 (OVCAR-4) | GI50 (SNB-19) | GI50 (HL-60) | GI50 (OVCAR-5) | GI50 (LOX IMVI) | GI50 (SK-OV-3) | GI50 (RPMI-8226) |
| --- | --- | --- | --- | --- | --- | --- | --- | --- | --- | --- | --- | --- | --- | --- | --- | --- | --- | --- | --- | --- |
| COc1c(NC(C)=O)c2ccccc2c2ccccc12 | > 100 µM (inactive) | 49.5 µM (inactive) | > 100 µM (inactive) | 89.3 µM (inactive) | > 100 µM (inactive) | > 100 µM (inactive) | > 100 µM (inactive) | > 100 µM (inactive) | > 100 µM (inactive) | > 100 µM (inactive) | > 100 µM (inactive) | > 100 µM (inactive) | > 100 µM (inactive) | > 100 µM (inactive) | > 100 µM (inactive) | 99.5 µM (inactive) | > 100 µM (inactive) | > 100 µM (inactive) |  |  |
| O=C(O)c1cccc2cccc(-c3cccc4cccc(C(=O)O)c34)c12 | > 100 µM (inactive) | > 100 µM (inactive) | > 100 µM (inactive) | > 100 µM (inactive) | > 100 µM (inactive) | > 100 µM (inactive) | > 100 µM (inactive) | > 100 µM (inactive) | > 100 µM (inactive) | > 100 µM (inactive) | > 100 µM (inactive) | > 100 µM (inactive) | > 100 µM (inactive) | > 100 µM (inactive) | > 100 µM (inactive) | > 100 µM (inactive) | > 100 µM (inactive) | > 100 µM (inactive) | > 100 µM (inactive) |  |
| CC(C)(C)OC(=O)N1CCC2(C)CC(=O)CC=C12 (stereo not given) | > 100 µM (inactive) | > 100 µM (inactive) | > 100 µM (inactive) | > 100 µM (inactive) | 81.8 µM (inactive) | > 100 µM (inactive) | > 100 µM (inactive) | > 100 µM (inactive) |  | 67 µM (inactive) | > 100 µM (inactive) | > 100 µM (inactive) | > 100 µM (inactive) | > 100 µM (inactive) | > 100 µM (inactive) | > 100 µM (inactive) | > 100 µM (inactive) | > 100 µM (inactive) | > 100 µM (inactive) |  |
| O=C1/C(=N\n2c(S)nnc2-c2ccncc2)c2cc(Cl)ccc2N1CN1CCCCC1 | 34.5 µM (inactive) | > 100 µM (inactive) | > 100 µM (inactive) | 56.5 µM (inactive) | 37.8 µM (inactive) | 36.8 µM (inactive) | 4.65 µM (inactive) | > 100 µM (inactive) | 50.9 µM (inactive) | 18.6 µM (inactive) | 20.9 µM (inactive) | 55.8 µM (inactive) | 50.4 µM (inactive) | 32.2 µM (inactive) | 76 µM (inactive) | 13.1 µM (inactive) | > 100 µM (inactive) | 17.5 µM (inactive) | 39.5 µM (inactive) |  |
| O=C1N=C2SC(=S)N=C(S)N2NC12c1ccccc1-c1ccccc12 |  |  | > 10 µM (inactive) | 6.28 µM (inactive) |  | 0.736 µM (active) | 3.67 µM (inactive) | > 10 µM (inactive) | 1.55 µM (inactive) | > 10 µM (inactive) |  | > 10 µM (inactive) |  | 5.13 µM (inactive) |  | > 10 µM (inactive) |  | > 10 µM (inactive) | > 10 µM (inactive) | 7.57 µM (inactive) |
| c1ccc2c(c1)nc1n2CCSC1 | > 100 µM (inactive) |  |  | > 100 µM (inactive) | > 100 µM (inactive) | > 100 µM (inactive) | > 100 µM (inactive) | > 100 µM (inactive) | > 100 µM (inactive) | > 100 µM (inactive) | > 100 µM (inactive) | > 100 µM (inactive) | > 100 µM (inactive) | > 100 µM (inactive) | > 100 µM (inactive) | > 100 µM (inactive) | > 100 µM (inactive) | > 100 µM (inactive) | > 100 µM (inactive) | > 100 µM (inactive) |
